{
  "source": "patent US5211944A",
  "about": "“Proanthocyanidin polymers having antiviral activity and methods of obtaining same” (Shaman Pharmaceuticals, Inc., priority 1991, dated 1993)",
  "key": {"Influenza viruses": {"test_system": "Influenza viruses", "details": "cited from earlier work"}, "[1]": {"test_system": "Herpes Simplex Virus Type 2 (HSV-2)", "assay": "HSV-2 vaginitis in mice, topical treatment", "assay_type": "in vivo, Swiss Webster mice"}, "Herpes simplex virus [2]": {"test_system": "Herpes simplex virus", "details": "cited from earlier work"}, "[3]": {"assay": "Uninfected toxicity controls, topical treatment (HSV-2 study)", "assay_type": "in vivo, Swiss Webster mice", "details": "5% topical", "procedure": "(§1) Groups of 5 mice were sham-infected using the process described above for virus infection, except that no virus was present for the final step. These mice were treated the same way and at the same times as above. Mice were checked daily for survival, and weights were recorded before the first (day 0) and after the last (day 8) treatment.\nThe efficacy of proanthocyanidin polymer A is compared with ganciclovir and acyclovir. Both ganciclovir powder and acyclovir cream were obtained commercially. Squibb cream base #8, which served as a vehicle and as the topical placebo control, was also commercially obtained.\nThe methods of infecting the mice, setting toxicity control and the parameters measured to evaluate the infection were the same as described above for the intraperitoneal tests. Topical treatments on the day of infection were given at +6 hours. They were then given twice daily for 7 more days."}, "[4]": {"assay": "Uninfected toxicity controls, i.p. treatment (HSV-2 study)", "assay_type": "in vivo, Swiss Webster mice", "details": "30 mg/kg/day i.p.", "procedure": "Six hours after virus infection, intraperitoneal (i.p.) injections were administered using proanthocyanidin polymer A, ganciclovir, or placebo. Treatments were also given i.p. twice daily on days 1 through 7 after virus challenge. The daily dose of each compound was 30 mg/kg/day, with 15 mg/kg given at each injection. Since on day 0 of the infection only one dose was given, the daily dose for that day was 15 mg/kg/day.\nas §1"}, "[5]": {"test_system": "Herpes Simplex Virus Type 2 (HSV-2)", "assay": "HSV-2 vaginitis in mice, intraperitoneal treatment", "assay_type": "in vivo, Swiss Webster mice", "details": "30 mg/kg/day i.p."}, "Herpes Simplex virus [6]": {"test_system": "Herpes Simplex virus", "details": "Beladi et al., 1977; in vitro; cited from earlier work"}, "Herpes Simplex virus [7]": {"test_system": "Herpes Simplex virus", "details": "HEp-2 cells; Beladi et al.; cited from earlier work"}},
  "data": [
    {"smiles": "CC(N)C12CC3CC(CC(C3)C1)C2", "note": "(racemic) [Rimantidine]", "values": [
      {"measurement": "central nervous system side effects", "setting": "Influenza viruses", "value": "not associated with the central nervous system side-effects"},
      {"measurement": "effect on fever duration and respiratory symptoms, versus amantadine", "setting": "Influenza viruses", "value": "shows a similar effect"}
    ]},
    {"smiles": "Nc1nc2c(ncn2COCCO)c(=O)[nH]1", "note": "[Acyclovir]", "values": [
      {"measurement": "lesion formation in infected animals", "setting": "[1]; 5% cream", "value": "nearly completely prevented lesion formation"},
      {"measurement": "Average Lesion Score", "setting": "[1]; 5% topical, day 3", "value": "0.2 ± 0.2"},
      {"measurement": "Average Lesion Score", "setting": "[1]; 5% topical, day 4", "value": "0.1 ± 0.2"},
      {"measurement": "Average Lesion Score", "setting": "[1]; 5% topical, day 5", "value": "0.0 ± 0.0"},
      {"measurement": "Average Lesion Score", "setting": "[1]; 5% topical, day 6", "value": "0.0 ± 0.0"},
      {"measurement": "Average Lesion Score", "setting": "[1]; 5% topical, day 7", "value": "0.0 ± 0.0"},
      {"measurement": "Average Lesion Score", "setting": "[1]; 5% topical, day 8", "value": "0.1 ± 0.2"},
      {"measurement": "Average Lesion Score", "setting": "[1]; 5% topical, day 9", "value": "0.0 ± 0.0"},
      {"measurement": "Average Lesion Score", "setting": "[1]; 5% topical, day 10", "value": 0.0},
      {"measurement": "Average Lesion Score", "setting": "[1]; 5% topical, day 11", "value": "0.0 ± 0.0"},
      {"measurement": "Average Lesion Score", "setting": "[1]; 5% topical, day 12", "value": "0.0 ± 0.0"},
      {"measurement": "Average Lesion Score", "setting": "[1]; 5% topical, day 13", "value": "0.0 ± 0.0"},
      {"measurement": "Average Lesion Score", "setting": "[1]; 5% topical, day 14", "value": "0.0 ± 0.0"},
      {"measurement": "No. of Mice W/O Lesion", "setting": "[1]; 5% topical, day 14 of the infection", "value": "10/10"},
      {"measurement": "Virus Titer (Day 2)", "setting": "[1]; 5% topical, vaginal", "value": "0.6 ± 0.2 Log 10 50% cell culture infectious dose per ml"},
      {"measurement": "Mean Day to Death", "setting": "[1]; 5% topical, virus-infected", "value": "> 21", "unit": "days"},
      {"measurement": "Survivors (%)", "setting": "[1]; 5% topical, virus-infected", "value": 100, "unit": "%"},
      {"measurement": "Survivors/Total", "setting": "[1]; 5% topical, virus-infected", "value": "10/10"},
      {"measurement": "topical effectiveness", "setting": "Herpes simplex virus [2]", "value": "not effective topically when used against recurrent genital infections"},
      {"measurement": "Host Wt. Change", "setting": "[3]; day 8 minus day 0", "value": "+2.0 grams"},
      {"measurement": "Mean Day to Death", "setting": "[3]; uninfected toxicity controls", "value": "> 21", "unit": "days"},
      {"measurement": "Survivors/Total", "setting": "[3]; uninfected toxicity controls", "value": "5/5"},
      {"measurement": "survival", "setting": "[3]; mouse, in vivo, topical or ocular, uninfected toxicity controls, read-out: Survivors (%)", "value": 100, "unit": "%"}
    ]},
    {"smiles": "Nc1nc(O)c2ncn(COC(CO)CO)c2n1", "note": "[Ganciclovir]", "values": [
      {"measurement": "tolerability in toxicity control mice", "setting": "[4]", "value": "gained less weight than placebo controls"},
      {"measurement": "Host Wt. Change", "setting": "[4]; day 8 minus day 0", "value": "+1.0 grams"},
      {"measurement": "Mean Day to Death", "setting": "[4]; uninfected toxicity controls", "value": "> 21", "unit": "days"},
      {"measurement": "Survivors/Total", "setting": "[4]; uninfected toxicity controls", "value": "5/5"},
      {"measurement": "survival", "setting": "[4]; mouse, in vivo, ip, uninfected toxicity controls, read-out: Survivors (%)", "value": 100, "unit": "%"},
      {"measurement": "Average Lesion Score", "setting": "[5]; day 3", "value": "0.1 ± 0.2"},
      {"measurement": "Average Lesion Score", "setting": "[5]; day 4", "value": "0.2 ± 0.2"},
      {"measurement": "Average Lesion Score", "setting": "[5]; day 5", "value": "0.2 ± 0.2"},
      {"measurement": "Average Lesion Score", "setting": "[5]; day 6", "value": "0.2 ± 0.2"},
      {"measurement": "Average Lesion Score", "setting": "[5]; day 7", "value": "0.2 ± 0.2"},
      {"measurement": "Average Lesion Score", "setting": "[5]; day 8", "value": "0.3 ± 0.4"},
      {"measurement": "Average Lesion Score", "setting": "[5]; day 9", "value": "0.4 ± 0.3"},
      {"measurement": "Average Lesion Score", "setting": "[5]; day 10", "value": "0.5 ± 0.5"},
      {"measurement": "Average Lesion Score", "setting": "[5]; day 12", "value": "0.9 ± 0.2"},
      {"measurement": "Average Lesion Score", "setting": "[5]; day 13", "value": "0.6 ± 0.6"},
      {"measurement": "Average Lesion Score", "setting": "[5]; day 14", "value": "0.6 ± 0.6"},
      {"measurement": "Average Lesion Score, Grand Avg.", "setting": "[5]; days 3-14", "value": "0.4 ± 0.2"},
      {"measurement": "Virus Titer (Day 3)", "setting": "[5]; vaginal swab", "value": "1.7 ± 1.0 Log10 50% cell culture infectious dose per ml"},
      {"measurement": "Mean Day to Death", "setting": "[5]; virus-infected", "value": "> 21", "unit": "days"},
      {"measurement": "Survivors (%)", "setting": "[5]; virus-infected", "value": 100, "unit": "%"},
      {"measurement": "Survivors/Total", "setting": "[5]; virus-infected", "value": "10/10"}
    ]},
    {"smiles": "O=c1cc(-c2ccc(O)cc2)oc2cc(O)cc(O)c12", "note": "[Apigenin]", "values": [
      {"measurement": "virus-inactivating (viricidal) activity", "setting": "Herpes Simplex virus [6]", "value": "only a slight effect"}
    ]},
    {"smiles": "O=c1c(O)c(-c2ccc(O)c(O)c2)oc2cc(O)cc(O)c12", "note": "[quercetin]", "values": [
      {"measurement": "inhibitory effect on virus multiplication", "setting": "Herpes Simplex virus [7]", "value": "only a slight inhibitory effect on virus multiplication"}
    ]},
    {"smiles": "Nc1ncnc2c1ncn2[C@@H]1O[C@H](CO)[C@@H](O)[C@@H]1O", "note": "[Vidarabine, adenine arabinoside]", "values": [
      {"measurement": "topical effectiveness", "setting": "Herpes simplex virus [2]", "value": "not effective topically against herpes labialis or other skin/genital infections"}
    ]}
  ]
}
